Source: patent publication US9212134B2, “Inhibitors of viral entry into mammalian cells” (priority 2010, dated 2015)
pIC50: −log10 of the molar value. “Also recorded” adds a separate entry of the source.

Tests used:
[1] = test system: HIV/HA (H5) pseudotype virus; test: organism not typed; assay type: cell-based, influenza A virus H5N1; conditions: for inhibition at 25 µM: A549, read-out: % inhibition @ 25 μM influenza
[2] = test system: HIV/VSV-G pseudotype virus; test: organism not typed; assay type: cell-based, vesicular stomatitis virus; conditions: for inhibition at 25 µM: read-out: % inhibition @ 25 μM VSV
Pseudotype ebola virus = test: microbe, parasite or virus in culture; assay type: cell-based; conditions: Zaire ebolavirus, read-out: % inhibition @ 25 μM EBOV
[3] = test system: cell viability (endogenous cellular GAPDH); test: Cell viability, AlphaScreen SureFire GAPDH assay; conditions: cytotoxicity
HIV/HA pseudotype virus = assay type: cell-based, influenza A virus H5N1
[4] = test system: Influenza A virus [A/WS/33]; test: Plaque assay of influenza A virus A/WS/33 on MDCK cells; assay type: cell-based, influenza A virus A/WS/33 (H1N1); conditions: 25-200 nM (FIG. 7)
[5] = test system: HIV/HA (H7) pseudotype virus; assay type: cell-based, influenza virus (H7)
HIV/MLV pseudotype virus = assay type: cell-based
Influenza H1N1 (PR8) = assay type: cell-based, influenza virus H1N1 (PR8)

Compound	inhibition at 25 µM [1]	inhibition at 25 µM [2]	inhibition at 25 µM (Pseudotype ebola virus)	pIC50 [1]	CC50 [3]	also measured
COc1ccc(S(=O)(=O)N(CC(=O)Nc2ccc(F)c(Cl)c2)c2ccccc2)cc1 [Compound 12078_D04]	40%	60%	87%	–	–	–
COc1ccc(N(CC(=O)Nc2ccccc2-c2ccccc2)S(=O)(=O)c2ccc(F)cc2)cc1 [Compound 12838_B07]	46%	77%	99%	–	–	–
COc1ccc(S(=O)(=O)N(CC(=O)Nc2ccc(F)cc2F)c2ccc(Cl)cc2)cc1 [Compound 12079_A05]	19%	0%	86%	–	–	–
COc1ccc(N(CC(=O)Nc2ccccc2SC)S(=O)(=O)c2ccc(F)cc2)cc1 [Compound 12794_H03]	47%	77%	100%	–	–	–
COc1ccc(S(=O)(=O)N(CC(=O)Nc2cccc3ccccc23)c2ccc(C)cc2)cc1 [Compound 12305_B04]	47%	0%	85%	–	–	–
COc1ccc(NC(=O)CN(c2ccccc2Cl)S(=O)(=O)c2ccc(C)cc2)c(OC)c1 [Compound 23]	–	–	–	< 4.00	> 100 µM	–
CCc1ccccc1N(CC(=O)Nc1cccc(F)c1)S(C)(=O)=O [Compound 12112_H02]	86%	0%	0%	–	–	–
COC(=O)c1ccccc1NC(=O)CN(c1ccc(C)cc1)S(=O)(=O)c1ccc(OC)cc1 [Compound 11978_G07]	22%	29%	89%	–	–	–
O=C(CN(c1ccc(Cl)cc1Cl)S(=O)(=O)c1ccccc1)Nc1ccc(F)cc1 [Compound 10]	–	–	–	4.60	50.5 µM	–
COc1ccc(N(CC(=O)Nc2ccccc2F)S(=O)(=O)c2ccccc2)cc1Cl [Compound 12441_B08]	33%	7%	98%	–	–	–
CS(=O)(=O)N(CC(=O)Nc1ccccc1F)c1cc(C(F)(F)F)ccc1Cl [Compound 12020_E02]	86%	68%	43%	–	–	–
COc1ccc(N(CC(=O)Nc2ccc(F)cc2)S(=O)(=O)c2ccccc2)cc1 [Compound 12]	–	–	–	< 4.00	> 100 µM	–
Cl.N [NH4Cl, ammonium chloride]	–	–	–	–	–	reduction of HIV/HA virus infection (HIV/HA pseudotype virus): significantly reduced the virus infection
O=C(CN(c1ccccc1F)S(=O)(=O)c1ccccc1)Nc1cccc(C(F)(F)F)c1 [Compound 30656_D10]	87%	59%	31%	–	–	–
COc1ccc(NC(=O)CN(c2cccc(Cl)c2)S(=O)(=O)c2ccccc2)c(OC)c1 [Compound 18]	–	–	–	< 4.00	> 100 µM	–
COc1cccc(NC(=O)CN(c2ccc(Cl)cc2C)S(=O)(=O)c2ccc(C)cc2)c1 [Compound 15]	–	–	–	< 4.00	43.4 µM	–
COc1ccc(OC)c(N(CC(=O)Nc2ccc(Cl)cc2)S(=O)(=O)c2ccc(C)cc2)c1 [Compound 8]	–	–	–	< 4.00	> 100 µM	–
CO/C1=C\C(C)=C\[C@@H](C)[C@@H](O)[C@@H](C)C/C(C)=C/C=C/[C@H](OC)[C@@H]([C@@H](C)[C@@H](O)[C@H](C)[C@@]2(O)C[C@@H](O)[C@H](C)[C@@H](C(C)C)O2)OC1=O [bafilomycin A]	–	–	–	–	–	inhibition of infectivity of HIV/HA pseudotype virus (HIV/HA pseudotype virus): efficiently inhibited the infectivity; also recorded: prevented HIV/HA infection; inhibition of infectivity of influenza virus infection [4]: efficiently inhibited the infectivity
COc1ccc(OC)c(NC(=O)CN(c2ccccc2Cl)S(=O)(=O)c2ccc(C)cc2)c1 [Compound 21]	–	–	–	< 4.00	> 100 µM	–
COc1ccc(Cl)cc1N(CC(=O)Nc1ccc(F)cc1F)S(=O)(=O)c1ccc(C)cc1 [Compound 12096_A08]	88%	42%	38%	–	–	–
COc1ccc(NC(=O)CN(c2ccc(Cl)cc2)S(=O)(=O)c2ccc(C)cc2)cc1 [Compound 16]	–	–	–	< 4.00	> 100 µM	–
COC(=O)c1ccccc1NC(=O)CN(c1ccc(C)cc1)S(=O)(=O)c1ccccc1 [Compound 30636_C03]	26%	42%	87%	–	–	–
CCc1ccc(N(CC(=O)Nc2ccc(Oc3ccccc3)cc2)S(C)(=O)=O)cc1 [Compound 12066_B08]	98%	24%	31%	–	–	–

Compound	inhibition at 25 µM [1]	inhibition at 25 µM [2]	inhibition at 25 µM (Pseudotype ebola virus)	pIC50 [1]	CC50 [3]	also measured
Cc1cccc(NC(=O)CN(c2cccc(Cl)c2Cl)S(C)(=O)=O)c1 [Compound 11998_D06]	88%	0%	0%	–	–	–
COc1cccc(N(CC(=O)Nc2ccc(CSc3ccccc3)cc2)S(C)(=O)=O)c1 [Compound 11997_F05]	100%	51%	41%	–	–	–
Cc1cccc(C)c1NC(=O)CN(c1ccccc1Cl)S(=O)(=O)c1ccccc1 [Compound 20]	–	–	–	< 4.00	> 100 µM	–
COc1ccc(N(CC(=O)Nc2c(OC)cccc2OC)S(=O)(=O)c2ccccc2)cc1 [Compound 13]	–	–	–	< 4.00	> 100 µM	–
Cc1ccc(N(CC(=O)Nc2ccccc2C(C)C)S(C)(=O)=O)cc1 [Compound 12402_E03]	47%	22%	85%	–	–	–
Cc1c(Cl)cccc1NC(=O)CN(c1ccc(I)cc1)S(C)(=O)=O [Compound 12076_B09]	86%	21%	48%	–	–	–
COc1ccc(S(=O)(=O)N(CC(=O)Nc2ccccc2SC)c2ccc(Cl)cc2)cc1 [Compound 12794_B09]	0%	63%	100%	–	–	–
O=C(CN(c1ccc(Cl)c(Cl)c1)S(=O)(=O)c1ccccc1)Nc1ccccc1 [Compound 9]	–	–	–	4.70	42 µM	–
Cc1ccc(S(=O)(=O)N(CC(=O)Nc2cccc(C)c2)c2ccccc2Cl)cc1 [Compound 22]	–	–	–	< 4.00	> 100 µM	–
COc1ccccc1N(CC(=O)Nc1cccc(C)c1C)S(=O)(=O)c1ccccc1 [Compound 14]	–	–	–	< 4.00	> 100 µM	–
COc1ccccc1NC(=O)CN(c1ccc(Cl)cc1C)S(C)(=O)=O [Compound 12078_B05]	96%	36%	42%	–	–	–
COc1ccc(N(CC(=O)Nc2ccccc2C)S(=O)(=O)c2ccccc2)cc1 [Compound 11]	–	–	–	< 4.00	> 100 µM	–
Cc1ccc(S(=O)(=O)N(CC(=O)Nc2ccccc2C(F)(F)F)c2ccc(F)cc2)cc1 [Compound 12440_F06]	46%	45%	93%	–	–	–
Cc1cccc(C)c1NC(=O)CN(c1cccc(Cl)c1)S(=O)(=O)c1ccccc1 [Compound 17]	–	–	–	< 4.00	> 100 µM	–
O=C(CN(c1ccc(Cl)cc1Cl)S(=O)(=O)c1ccccc1)Nc1ccccc1F [Compound 2]	–	–	–	–	–	IC90 [1]: 3.9 µM; IC90 [2]: > 100 µM; IC90 [5]: > 100 µM; IC90 (HIV/MLV pseudotype virus): 99 µM; pIC50 (Influenza H1N1 (PR8)): 5.28
COc1ccc(S(=O)(=O)N(CC(=O)Nc2cccc3ccccc23)c2ccc(Cl)cc2)cc1 [Compound 12308_B02]	46%	23%	96%	–	–	–
O=C(CN(c1cccc(Cl)c1)S(=O)(=O)c1ccccc1)Nc1ccccc1Cl [Compound 19]	–	–	–	< 4.00	90.3 µM	–
COc1cccc(N(CC(=O)Nc2cc(Cl)cc(Cl)c2)S(=O)(=O)c2ccccc2)c1 [Compound 7]	–	–	–	4.73	31.5 µM	–
CCOc1ccccc1NC(=O)CN(c1cc(Cl)ccc1Cl)S(C)(=O)=O [Compound 12110_D02]	90%	2%	0%	–	–	–
CCOc1ccc(N(C(C)C(=O)Nc2cccc(C(F)(F)F)c2)S(C)(=O)=O)cc1 (centres unmarked) [Compound 11982_F11]	87%	73%	25%	–	–	–
COc1ccc(Cl)cc1NC(=O)CN(c1cccc(Cl)c1Cl)S(C)(=O)=O [Compound 12021_B02]	87%	70%	0%	–	–	–
O=C(CN(c1ccc(Cl)cc1Cl)S(=O)(=O)c1ccccc1)Nc1ccccc1F [Compound 6]	–	–	–	5.28	> 25 µM	–
